Data as given in US7517998B2, “Non nucleoside reverse transcriptase inhibitors” (priority 2004, dated 2009).

Each molecule was assayed against T1, K103NNY181C mutant reverse transcriptase (Human immunodeficiency virus type 1 group M subtype B, UniProt P04585, K690N/Y768C) (assay: Reverse transcriptase enzymatic assay (PicoGreen), K103N/Y181C mutant RT). Conditions: IC50 mut (nM), mutant (K103N/Y181C) reverse transcriptase, enzymatic assay of Example 24.
T1 construct: mutations that occur in the reverse transcriptase segment of the pol gene
Format: biochemical, HIV-1
Summary of the method: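 PicoGreen fluorescence (ex 485, em 520 nm) quantified product after EDTA stop. Reaction ran 50 min at 37 °C in pH 7.8 Tris/HCl buffer, 1% DMSO, with poly rC/dG15 template-primer (45/4.5 nM), 3.6 μM dGTP, 2.5 nM enzyme; inhibitor 10 μM–0.508 nM final after 15 min room-temperature pre-incubation.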

Row | SMILES | IC50 [nM]
1 | CC(C)(C)c1ccc(-n2nnnc2SCC(=O)Nc2ccc(NC(=O)Cc3ccccn3)cc2Cl)c(Cl)c1 [Compound 7032] | 30
2 | CC(C(=O)Nc1ccc(NC(=O)CSc2nnnn2-c2ccc(C(C)(C)C)cc2Cl)c(Cl)c1)c1ccccc1 (stereo not shown) [Compound 7044] | 335
3 | CC(C)(C)c1ccc(-n2nnnc2SCC(=O)Nc2ccc(NC(=O)c3ccc(C(=O)O)cc3)cc2Cl)c(Cl)c1 [Compound 7029] | 88
4 | CC(C)(C)c1ccc(-n2nnnc2SCC(=O)Nc2ccc(NC(=O)c3ccccc3Cl)cc2Cl)c(Cl)c1 [Compound 7013] | 121
5 | CC(C)(C)c1ccc(-n2nnnc2SCC(=O)Nc2ccc(NC(=O)Cc3ccc([N+](=O)[O-])cc3)cc2Cl)c(Cl)c1 [Compound 7025] | 154
6 | COC(C(=O)Nc1ccc(NC(=O)CSc2nnnn2-c2ccc(C(C)(C)C)cc2Cl)c(Cl)c1)c1ccccc1 (stereo not shown) [Compound 7039] | 89.5
7 | CC(C)(C)c1ccc(-n2nnnc2SCC(=O)Nc2ccc(NC(=O)Cc3ccsc3)cc2Cl)c(Cl)c1 [Compound 7026] | 88
8 | CC(C)(C)c1ccc(-n2nnnc2SCC(=O)Nc2ccc(NC(=O)CC3CCCC3)cc2Cl)c(Cl)c1 [Compound 7023] | 255

Same assay, conditions: IC50 mut, K103N/Y181C mutant reverse transcriptase, enzymatic assay of Example 24

Row | SMILES | IC50 [nM]
9 | CC(C)(C#Cc1ccc(NC(=O)CSc2nnnn2-c2cc(C(C)(C)C)ccc2Cl)c(Cl)c1)C(=O)O [Compound 4200] | 35.5
10 | CC(C)(C)c1ccc(-n2nnnc2SCC(=O)Nc2ccc(C#CCCC(=O)O)cc2Cl)c(Cl)c1 [Compound 4102] | 24.5
11 | CC(C)(C#Cc1ccc(NC(=O)CSc2nnnn2-c2ccc(C3CC3)cc2Cl)c(Cl)c1)NC(=O)CN1CCCC1 [Compound 4123] | 38
12 | CC(C)(C#Cc1ccc(NC(=O)CSc2nnnn2-c2ccc(C3CC3)cc2Cl)c(Cl)c1)OCC(N)=O [Compound 4064] | 11.5
13 | O=C(CSc1nnnn1-c1ccc(C2CC2)cc1Cl)Nc1ccc(C#CCCN2CCNCC2)cc1Cl [Compound 4135] | 29
14 | CC(C)(C#Cc1ccc(NC(=O)CSc2nnnn2-c2ccc(C(C)(C)C)cc2Cl)c(Cl)c1)OCC(=O)Nc1ccccc1 [Compound 4044] | 296
15 | CC(C)(C#Cc1ccc(NC(=O)CSc2nnnn2-c2ccc(C3CC3)cc2Cl)c(Cl)c1)NCc1cc[n+]([O-])cc1 [Compound 4186] | 12
16 | CC(C)(C)c1ccc(-n2nnnc2SCC(=O)Nc2ccc(C#CCN3CCCCC3)cc2Cl)c(Cl)c1 [Compound 4014] | 88
17 | C=C(C)C#Cc1ccc(NC(=O)CSc2nnnn2-c2ccc(C3CC3)cc2Cl)c(Cl)c1 [Compound 4112] | 54
18 | CC(C)(C#Cc1ccc(NC(=O)CSc2nnnn2-c2ccc(C3CC3)cc2Cl)c(Cl)c1)OCCN1CCC1 [Compound 4119] | 121
19 | CC(C)(C#Cc1ccc(NC(=O)CSc2nnnn2-c2ccc(C3CC3)cc2Cl)c(Cl)c1)NC(=O)Cn1cncn1 [Compound 4109] | 10.8
20 | CC(C)(C#Cc1ccc(NC(=O)CSc2nnnn2-c2ccc(C3CC3)cc2Cl)c(Cl)c1F)NC(=O)CN1CCNCC1 [Compound 4198] | 22
21 | CN(C)C(=O)COC(C)(C)C#Cc1ccc(NC(=O)CSc2nnnn2-c2ccc(C(C)(C)C)cc2Cl)c(Cl)c1 [Compound 4049] | 30
22 | CC(C)(C#Cc1ccc(NC(=O)CSc2nnnn2-c2ccc(C3CC3)cc2Cl)c(Cl)c1F)OCCN1CCC(F)(F)C1 [Compound 4217] | 90.5
23 | CC(C)(C#Cc1ccc(NC(=O)CSc2nnnn2-c2ccc(C(C)(C)C)cc2Cl)c(Cl)c1F)C(=O)O [Compound 4122] | 15.5
24 | CC(C)(C#Cc1ccc(NC(=O)CSc2nnnn2-c2cc(Cl)ccc2Cl)c(Cl)c1)NC(=O)c1cc[n+]([O-])cc1 [Compound 4189] | 19.5
25 | CC(C)(C#Cc1ccc(NC(=O)CSc2nnnn2-c2ccc(C3CC3)cc2Cl)c(Cl)c1)C(=O)NCc1cc[n+]([O-])cc1 [Compound 4148] | 11
26 | Cc1cc(Cl)c(-n2nnnc2SCC(=O)Nc2ccc(C#CC(C)(C)C(=O)O)cc2Cl)cc1C(F)(F)F [Compound 4063] | 51.5
27 | CC(C)(C#Cc1ccc(NC(=O)CSc2nnnn2-c2ccc(C(C)(C)C)cc2Cl)c(Cl)c1)OCC(=O)Nc1ccc(C(=O)O)cc1 [Compound 4045] | 32
28 | CC(C)(C#Cc1ccc(NC(=O)CSc2nnnn2-c2ccc(C3CC3)cc2Cl)c(Cl)c1F)C(=O)O [Compound 4100] | 18
29 | Cc1cc(C)c(-n2nnnc2SCC(=O)Nc2ccc(C#CC(C)(C)O)cc2Cl)c(Cl)c1 [Compound 4007] | 38
30 | CC(C)(C#Cc1ccc(NC(=O)CSc2nnnn2-c2cc(Cl)ccc2Cl)c(Cl)c1)NC(=O)CN1CCNCC1 [Compound 4194] | 45
31 | CC(C)(C#Cc1ccc(NC(=O)CSc2nnnn2-c2ccc(C3CC3)cc2Cl)c(Cl)c1)NC(=O)CN1CCNCC1 [Compound 4124] | 27
32 | CC(C)(N)C#Cc1ccc(NC(=O)CSc2nnnn2-c2cc(C3CC3)cc(C(F)(F)F)c2Cl)c(Cl)c1F [Compound 4250] | 51.5
33 | CC(C)(C#Cc1ccc(NC(=O)CSc2nnnn2-c2ccc(C3CC3)cc2Cl)c(Cl)c1)NC(=O)C1(C(=O)O)CC1 [Compound 4233] | 9.35

Same assay, conditions: IC50 mut, mutant reverse transcriptase, enzymatic assay of Example 24

Row | SMILES | IC50 [nM]
34 | CC(C)(C)c1ccc(-n2nnnc2SCC(=O)Nc2ccc(OCC(=O)NCCc3ccc(O)c(O)c3)cc2Cl)c(Cl)c1 [Compound 5021] | 181
35 | CC(C)(C)c1ccc(-n2nnnc2SCC(=O)Nc2ccc(OCC(=O)NCCO)cc2Cl)c(Cl)c1 [Compound 5015] | 158
36 | CC(C)(C)c1ccc(-n2nnnc2SCC(=O)Nc2ccc(C(=O)NCc3ccc(O)c(O)c3)cc2Cl)c(Cl)c1 [Compound 6019] | 36
37 | O=C(O)Cc1ccc(-c2ccc(NC(=O)CSc3nnnn3-c3ccc4ccccc4c3Cl)c(Cl)c2)cc1 [Compound 2030] | 64
38 | O=C(CSc1nnnn1-c1ccc(C2CC2)cc1Cl)Nc1ccc(C(=O)NCc2cc[n+]([O-])cc2)cc1Cl [Compound 6034] | 44.5
39 | CC(C)(C)c1ccc(-n2nnnc2SCC(=O)Nc2ccc(C(=O)NCc3ccc(N)cc3)cc2Cl)c(Cl)c1 [Compound 6026] | 51
40 | COC(=O)CN(C)CCOc1ccc(-c2ccc(NC(=O)CSc3nnnn3-c3ccc(C(C)(C)C)cc3Cl)c(Cl)c2)cc1 [Compound 2043] | 32
41 | CC(C)(C(=O)O)c1ccc(-c2ccc(NC(=O)CSc3nnnn3-c3ccc(C4CC4)cc3Cl)c(Cl)c2)cc1 [Compound 2052] | 19
42 | Cc1ccc(-c2c(OCC(=O)Nc3ccc(C#CC(C)(C)C(=O)O)cc3Cl)n[nH]c2C)c(Cl)c1 [Compound 1015] | 48
43 | O=C(CSc1nnnn1-c1ccc(C2CC2)cc1Cl)Nc1ccc(OCC(=O)N2CCC(C(=O)O)CC2)cc1Cl [Compound 5032] | 51.5
44 | CC(C)(C)c1ccc(-n2nnnc2SCC(=O)Nc2ccc(C(=O)Nc3ccc(CCC(=O)O)cc3)cc2Cl)c(Cl)c1 [Compound 6031] | 29.5
45 | CC(CC(=O)O)NC(=O)COc1ccc(NC(=O)CSc2nnnn2-c2ccc(C(C)(C)C)cc2Cl)c(Cl)c1 (stereo not shown) [Compound 5014] | 146
46 | O=C(CSc1nnnn1-c1ccc(C2CC2)cc1Cl)Nc1ccc(C(=O)NS(=O)(=O)c2ccccc2)cc1Cl [Compound 6037] | 111
47 | CC(C)(C)c1ccc(-n2nnnc2SCC(=O)Nc2ccc(OCC(=O)Nc3ccc(O)cc3)cc2Cl)c(Cl)c1 [Compound 5013] | 150
48 | CC(C)(C)c1ccc(-n2nnnc2SCC(=O)Nc2ccc(OCC(=O)NCc3ccc(C(=O)O)cc3)cc2Cl)c(Cl)c1 [Compound 5027] | 51
49 | Cc1cc(C)c(-n2nnnc2SCC(=O)Nc2ccc(-c3ccc(CC(=O)O)cc3)cc2Cl)c(Cl)c1 [Compound 2021] | 20

Row | SMILES | IC50 [nM]
50 | CC(C)(C)c1ccc(-n2nnnc2SCC(=O)Nc2ccc(OCC(=O)Nc3cccc(O)c3)cc2Cl)c(Cl)c1 [Compound 5011] | 69
51 | CC(C)(C)c1ccc(-n2nnnc2SCC(=O)Nc2ccc(C(=O)NCCc3ccc(O)c(O)c3)cc2Cl)c(Cl)c1 [Compound 6020] | 51
52 | CC(C)(C)c1ccc(-n2nnnc2SCC(=O)Nc2ccc(-c3ccc(OCC(=O)O)c(Cl)c3)cc2Cl)c(Cl)c1 [Compound 3013] | 24
53 | Cc1ccc(-n2nnnc2SCC(=O)Nc2ccc(-c3ccc(CC(=O)O)cc3)cc2[N+](=O)[O-])c(Cl)c1 [Compound 2011] | 49
54 | COC(=O)Cc1ccc(-c2ccc(NC(=O)CSc3nnnn3-c3ccc(C)cc3Cl)c([N+](=O)[O-])c2)cc1 [Compound 2010] | 40
55 | CC(C)(C)c1ccc(-n2nnnc2SCC(=O)Nc2ccc(-c3ccc(OCCN4CCOCC4)cc3)cc2Cl)c(Cl)c1 [Compound 2022] | 42
56 | Cc1cc(NC(=O)COc2ccc(NC(=O)CSc3nnnn3-c3ccc(C(C)(C)C)cc3Cl)c(Cl)c2)no1 [Compound 5001] | 71
57 | CNC(=O)NS(=O)(=O)c1ccc(NC(=O)CSc2nnnn2-c2ccc(C3CC3)cc2Cl)c(Cl)c1 [Compound 3039] | 268
58 | Cc1ccc(-n2nnnc2SCC(=O)Nc2ccc(-c3ccc(CC(N)=O)cc3)cc2Cl)c(Cl)c1 [Compound 2012] | 15
59 | Cc1ccc(-n2nnnc2SCC(=O)Nc2ccc(-c3ccc(CC(=O)NS(C)(=O)=O)cc3)cc2Cl)c(Cl)c1 [Compound 2017] | 38
60 | CSCCC(NC(=O)c1ccc(NC(=O)CSc2nnnn2-c2ccc(C(C)(C)C)cc2Cl)c(Cl)c1)C(=O)O (stereo not shown) [Compound 6025] | 41
61 | COC(=O)Cc1ccc(-c2ccc(NC(=O)CSc3nnnn3-c3ccc(C)cc3Cl)c(Cl)c2)cc1 [Compound 2003] | 53
62 | CC(C)(C)c1cc(Cl)c(-n2nnnc2SCC(=O)Nc2ccc(-c3ccc(OCC(=O)O)cc3)cc2Cl)c(Cl)c1 [Compound 2018] | 12
63 | CN1CCN(NS(=O)(=O)c2ccc(NC(=O)CSc3nnnn3-c3ccc(C4CC4)cc3Cl)c(Cl)c2)CC1 [Compound 3037] | 112
64 | CN(CCc1cc[n+]([O-])cc1)C(=O)COc1ccc(NC(=O)CSc2nnnn2-c2ccc(C3CC3)cc2Cl)c(Cl)c1 [Compound 5041] | 132
